test system: CD1 Mice; experiment: toxicity in healthy mice: weight loss after a single intravenous dose, observed for seven days; format: in vivo, mouse; conditions: single 20 mg/kg dose intravenously
Description: CD1 Mice were injected intravenously with a single 20 mg/kg dose each of compounds 2a, 2b, daunorubicin, and vehicle and observed for seven days, before euthanization. […] Thus, compounds of the invention appear to be less toxic than Daunorubicin when administered to healthy mice.

| Structure (SMILES) | weight loss as compared with the control group |
| --- | --- |
| COc1cccc2c1C(=O)c1c(O)c3c(c(O)c1C2=O)C[C@@](O)(C(C)=O)C[C@@H]3O[C@H]1CC2[C@H](OCOCN2C(=O)OCc2cnc([N+](=O)[O-])n2C)[C@H](C)O1 (stereo partly drawn) [Compound 2a] | did not undergo significant weight loss |
| COc1cccc2c1C(=O)c1c(O)c3c(c(O)c1C2=O)C[C@@](O)(C(C)=O)C[C@@H]3O[C@H]1CC2[C@H](OCOCN2C(=O)OCc2ncc([N+](=O)[O-])n2C)[C@H](C)O1 (stereo partly drawn) [Compound 2b] | did not undergo significant weight loss |
| COc1cccc2c1C(=O)c1c(O)c3c(c(O)c1C2=O)C[C@@](O)(C(C)=O)C[C@@H]3O[C@H]1C[C@H](N)[C@H](O)[C@H](C)O1 [Daunorubicin, reference compound] | Significant weight loss |
